Assay results from US8268861B2, “P2X7R antagonists and their use” (Affectis Pharmaceuticals AG, priority 2009, dated 2012).

Key:
[1] = biological target: T1, human P2X7R (Homo sapiens, UniProt Q99572); test: Inhibition of Bz-ATP-stimulated calcium influx in Hek293 cells stably transfected with human P2X7R (Fluo-4-AM); type: cell-based; conditions: Hek293 cells expressing human P2X7R, 100 μM Bz-ATP, 15 minute incubation with test compound
T1 construct: expressed in transfected cells
T1 sequence (Q99572 1-595): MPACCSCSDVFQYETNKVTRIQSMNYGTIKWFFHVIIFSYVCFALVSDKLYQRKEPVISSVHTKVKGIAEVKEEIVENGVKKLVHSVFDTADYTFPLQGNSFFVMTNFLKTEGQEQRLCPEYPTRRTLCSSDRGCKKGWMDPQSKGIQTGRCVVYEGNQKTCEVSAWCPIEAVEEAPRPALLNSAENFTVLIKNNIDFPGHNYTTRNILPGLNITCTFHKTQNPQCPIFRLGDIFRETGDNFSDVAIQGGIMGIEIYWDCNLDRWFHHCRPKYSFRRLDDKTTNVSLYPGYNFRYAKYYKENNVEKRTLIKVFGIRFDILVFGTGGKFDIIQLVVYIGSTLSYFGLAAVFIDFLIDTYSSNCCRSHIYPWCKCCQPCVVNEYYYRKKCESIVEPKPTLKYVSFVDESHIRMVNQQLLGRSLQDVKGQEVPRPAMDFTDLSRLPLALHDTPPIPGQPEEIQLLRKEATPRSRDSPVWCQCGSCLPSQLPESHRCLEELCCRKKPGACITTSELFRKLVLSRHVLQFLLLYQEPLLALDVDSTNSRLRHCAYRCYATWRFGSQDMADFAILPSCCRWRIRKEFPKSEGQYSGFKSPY
Protocol: Inhibition of P2X7R activity by the compounds of the present invention is assessed by measuring calcium influx in Hek293 cells (ECACC No. 85120602) which have been stably transfected with a cDNA for the human P2X7R.
Hek293 cells expressing P2X7R were generated by lipofectamine transfection of the human P2X7R cDNA (Genbank accession number BC011913) under the control of the human cytomegalovirus immediate-early (CMV) promoter and inserted into the pcDNA3.1 vector (Invitrogen). […]
Inhibition of Bz-ATP-stimulated P2X7R by test compounds was monitored by measuring changes in calcium influx using the Fluo-4-AM fluorescent dye according to the manufacturer's recommendations (Molecular Devices Corporation, U.S.A.). […] After a 15 minute incubation, 100 μM Bz-ATP was added and fluorescence was measured in a FlexStation II (Molecular Devices, U.S.A.) according to the following parameters: 485 nm Excitation Wavelength; 525 nm Emission Wavelength; 515 nm Emission Cut-off; 100 μl Pipette Height; 25 μl Transfer Volume; 5 fold Compound Concentration; 3 rate Addition Speed. […] The fluorescence data were processed using a lag time of 15 seconds, recording 45 seconds, zero baseline calibrated using 2 points, and % baseline multiplier set at 3. […]

[2] = test system: IL-1 beta secretion; test: IL-1 beta secretion by LPS/BzATP-stimulated isolated human monocytes (macrophages), ELISA; type: cell-based; conditions: 1 μg/mL LPS 2 hours, 100 μM BzATP 30 minutes, compound added 5 minutes before BzATP, FIG. 1, p<0.01
Protocol: The effects of compounds of the present invention on IL-1 beta secretion is assessed using isolated human monocytes.
Briefly, human monocytes were purified from human blood by Ficoll-Paque from Buffy coats as follows. The Buffy coat is a greyish white layer of white blood cells and platelets that accumulates on the surface of sedimented erythrocytes when blood is allowed to stand or is centrifuged. Each Buffy coat (one per donor) was diluted with PBS and 20 ml added on top of 15 ml of Ficoll-Paque. The gradient was centrifuged at 900 g for 20 min at room temperature. […] At day 5, the cells were counted, resuspended in RPMI 1640 supplemented with 5% human serum at a concentration of 1×10^6/ml and plated onto a 24 wells plate (5×10^5 cells/well). […]
The day of experiment, the macrophages were pre-stimulated for 2 hours with 1 μg/mL LPS at 37° C. […] After incubation, the supernatants were collected by centrifugation (250 g for 5 minutes) and IL-1β secretion was measured by using the human IL-1 beta/IL-1F2 Quantikine ELISA Kit following manufacturer's instructions. […] The O.D. at 450 nm was measured for each data points and the IL-1β concentration calculated based on a standard curve. The […] concentration was further calculated to have a concentration in pg/mL/10E+6 cells, together with its standard deviation.

IC50 [1]: ~3.8 nM
SMILES: O=C(CC1CCCCCC1)Nc1cn(CCO)c2cccc(Cl)c12 [Example 2, N-(4-chloro-1-(2-hydroxyethyl)-1H-indol-3-yl)-2-cycloheptylacetamide]
IL-1beta secretion [2]: reduced IL-1beta secretion
